Data on one compound can be found in US12097213B2, “Sequential treatment of cancers using 6-thio-dG, checkpoint inhibitors and radiation therapy” (The Board of Regents of the University of Texas System, priority 2020, dated 2024).

Assay [1] has as its system MC38 cells. Nature of the assay: Telomere dysfunction Induced Foci (TIF) and micronuclei assays in cells. The class given is cell-based, mouse. As for the experimental part: Telomere dysfunction Induced Foci (TIF) and micronuclei assays. The TIF assay is based on the co-localization detection of DNA damage by an antibody against DNA damage response factors such as gamma-H2AX, 53BP1, and antibody against telomeric proteins or telomeres using telomere sequence-specific peptide nucleic acid (PNA) probe (Mender and Shay, 2015). Briefly, cells were seeded into 4-well chamber slides. Next day, cells were treated with 1 μM 6-thio-dG for 24 hrs (for TIF assay) or 1-3 μM 6-thio-dG for 48 hrs (for micronuclei assay). Slides were then rinsed twice with PBS and fixed in 4% formaldehyde (Thermo Fisher) in PBS for 10 mins. Then, cells were washed twice with PBS and permeabilized in 0.5% Triton X-100 in PBS for 10 min. Following permeabilization, cells were washed three times with PBS. Cells were blocked with 10% goat serum in 0.1% PBST (TritonX-100) for 1 hr. Gamma-H2AX (TIF assay, mouse, 1:1000) (Millipore) or lamin A/C (micronuclei assay, mouse, 1:500) (Santa Cruz) was diluted in blocking solution and incubated on cells for 2 hrs. Following three washes with PBST (1×PBS in 0.1% Triton) and 3 washes with PBS, cells were incubated with Alexaflour 568 conjugated goat anti-mouse (1:500) (Invitrogen) for 40 mins, then washed five times with 0.1% PBST. Cells were fixed in 4% formaldehyde in PBS for 20 mins at RT. The slides were sequentially dehydrated with 70%, 90%, 100% ethanol followed by denaturation with hybridization buffer containing FAM-conjugated telomere sequence (C-rich)-specific PNA probe, 70% formamide, 30% 2×SSC, 10% (w/v) MgCl2·6H2O (Fisher Sci), 0.25% (w/v) blocking reagent for nucleic acid hybridization and detection (Roche) for 7 mins at 80° C. on a heat block, followed by overnight incubation at RT. Slides were washed sequentially with 70% formamide (Ambion)/0.6×SSC (Invitrogen) (2×1 hr), 2×SSC (1×15 mins), PBS (1×5 mins) and sequentially dehydrated with 70%, 90%, 100% ethanol, then mounted with Vectashield mounting medium with DAPI (Vector Laboratories). […] TIFs were quantified using Image J.

The test system of assay [2] is LLC murine lung cancer cells. Nature of the assay: Cell viability assay (CellTiter 96), LLC. The class given is cell-based, mouse. Conditions: treated for 4 days. As for the experimental part:
(§1) Cell viability assay. For determination of IC50 with cell proliferation assays, murine and human cancer cell lines were screened with 6-thio-dG with a 2-fold dilution series in 8 different points in 96-well plates. Cells were plated 24 hrs prior to the addition of drug, incubated for 4-5 days, and assayed using CellTiter 96® Aqueous One Solution Cell Proliferation Assay according to the manufacturer's instructions (Promega). Cell number per well ranged from 1,000 to 10,000 cells per well inversely proportional to doubling times. Dose response curves were generated and IC50s calculated using Graphpad Prism. All samples were analyzed in triplicate and standard deviations are from 2-3 independent experiments.

The test system of assay [3] is A375 human melanoma cancer cells. The experiment in a line: Cell viability assay (CellTiter 96), A375. The class given is cell-based. The settings on record: treated for 4 days. As for the experimental part: as §1
The test system of assay [4] is CT26 tumor cells. The experiment in a line: CT26 tumor growth and treatment in mice. The class given is in vivo, mouse. The settings on record: BALB/C mice; 3 mg/kg, three days treatment (days 5, 6, 7). As for the experimental part: Tumor growth and treatment. A total of 5×10^5 MC38, 5×10^5 CT26 or 1×10^6 LLC cells were inoculated subcutaneously into right dorsal flanks of the mice in 100 μL phosphate buffered saline (PBS). Tumor-bearing mice were randomly grouped into treatment groups when tumors grew to around 100 mm^3. For 6-thio-dG single treatment, 3 mg/kg 6-thio-dG was intraperitoneally given on days 7, 8 and 9 in MC38 tumor and LLC tumor and on days 5, 6, 7 for CT26 tumor. For CSF1R, NKL.1, CD4+ and CD8+ T cell depletion, 200 μg of antibodies were intraperitoneally injected 1 day before treatment initiation and then twice a week for 2 weeks. For PD-L1 blockade combination therapy in MC38 model, 6-thio-dG was given on day 10 and day 11, 50 μg PD-L1 was intraperitoneally injected on day 13 and 17. For PD-L1 blockade combination therapy in LLC model, 6-thio-dG was given on day 4, 5, 6, 10 and 11, 200 μg PD-L1 was intraperitoneally injected on day 8 and 13. Tumor volumes were measured by the length (a), width (b) and height (h) and calculated as tumor volume=abh/2.

Assay [5] has as its system CT26 murine colon cancer cells. Nature of the assay: Cell viability assay (CellTiter 96), CT26. The class given is cell-based, mouse. As for the experimental part: as §1
Assay [6] relates to TBK1. Nature of the assay: Immunoblotting of DCs after co-culture. The class given is cell-based, mouse. Conditions: co-culture 6 hrs with MC38 pretreated with 0.2 μM or 1 μM 6-thio-dG. The procedure:
Immunoblotting. BMDC and MC38 treatment were same as “In vitro co-culture of bone marrow dendritic cells”. 6 hrs after co-culture, DC was isolated with CD11c+ positive selection kit (Stemcell). Protein sample preparation and immunoblot procedures were performed as previously described (Liu et al., 2019). Proteins were detected with rabbit monoclonal antibodies for pSTING (Cell signaling, 72971), STING (Cell signaling, 50494), pTBK1 (Cell signaling, 5483), TBK1 (Cell signaling, 3504). Protein loading was determined with antibodies against with Cyclophilin A (Cell signaling, 2175). Anti-rabbit (1:2000 in 5% BSA) was used for secondary antibody (Cell signaling, 7074). X-ray film (GeneMate, F-9024-8X10) was used to develop the membranes. Clarity Max Western ECL Substrate (Biorad, 1705062) or Supersignal West PicoPlus Chemiluminescent Substrate (Thermoscientific, 34577) was used for chemiluminescent western blot.
On the technique in general: A western blot detects proteins with antibodies after separation by electrophoresis.

Assay [7] deals with MC38 cells. The experiment in a line: Cell viability assay (CellTiter 96), MC38. The class given is cell-based. The settings on record: Mus musculus, MC-38, 120 h; cells treated for 5 days; read-out: IC50 concentration, cell viability. The procedure:
as §1

The test system of assay [8] is HCT116 human colon cancer cells. Nature of the assay: Cell viability assay (CellTiter 96), HCT116. The class given is cell-based. The settings on record: HCT-116, 120 h, cells treated for 5 days. The procedure: as §1

Regarding `Nc1nc2c(ncn2[C@H]2C[C@H](O)[C@@H](CO)O2)c(=S)[nH]1` [6-thio-dG, 6-thio-2′-deoxyguanosine], the “interphase bridges between daughter cells during telophase” value in assay [1] is on record as “induced interphase bridges”. Further, in assay [1] (1 μM 6-thio-dG for 24 hrs), the “telomere stress by TIF assay” value is recorded as “induced telomere damages”. Further, the micronuclei entry in assay [1] (1 μM 6-thio-dG, 48 hrs) was “induced micronuclei”. Further, the “cell viability in vitro” value in assay [2] and in assay [5] was “cell viability inhibition” throughout. Also, in assay [3], the “sensitivity in vitro (cell viability)” value is “sensitive”. In addition, the tumor growth result in assay [4] was “significant tumor growth delay”. Besides, the “TBK1 phosphorylation in DCs” value in assay [6] is “increase”. In addition, the IC50 in assay [7] turned out to be 0.37 µM; in assay [8], 0.73 µM.
